What follows are molecules tested on E. coli TEM-30 (assay: not given). Conditions: E. coli TEM-30.
Type: cell-based, Escherichia coli
Procedure: (§1) Beta-lactamase clinical samples were collected from University Hospitals Leuven and tested for ESBL production using the disk diffusion method. The beta-lactamase reference isolates were purchased from International Health Management Associates (IHMA). Bacterial strains were cultivated in Mueller–Hinton Broth (MHB, Difco) at 37 °C. Whenever required, growth media were supplemented with appropriate antibiotics to the medium or plates (kanamycin 30 µg/mL, L-arabinose 0.5 mg/mL, and IPTG […]). Escherichia coli BL21 (ThermoFisher Scientific, Belgium) was used for cloning and plasmid amplification. For the selection of antibiotic resistant colonies, E. coli carrying plasmids was grown in LB agar plates supplemented with the relevant antibiotic. Bacterial CFU counting was done on blood agar plates (BD Biosciences, Belgium) or MHA agar plates. Species identification and antibiograms for all clinical isolates were performed using MALDI-Tof and VITEK® 2 automated system (BioMérieux, France).
(§2) Khodaparast et al Supplementary data
(§3) study. […] Abbreviations: S,
(§4) susceptible; I, intermediate; R, resistant.
Colistin was tested, and the Interoretation was “S”.
`CO[C@@]1(NC(=O)C(C(=O)O)c2ccsc2)C(=O)N2[C@@H](C(=O)O)C(C)(C)S[C@@H]21` (stereo partly shown) [Temocillin] was tested, and the Interoretation was “S”.
`C[C@@H](O)[C@H]1C(=O)N2C(C(=O)O)=C(S[C@@H]3CN[C@H](C(=O)N(C)C)C3)[C@H](C)[C@H]12` [Meropenem] was tested, and the Interoretation was “S”.
With `C=CC1=C(C(=O)O)N2C(=O)[C@@H](NC(=O)/C(=N\OCC(=O)O)c3csc(N)n3)[C@H]2SC1` [Cefixime] the Interoretation was “*I”.

Same assay, conditions: VITEK 2 AST card
With Colistin the Interpretation was “S”.
With `CO[C@@]1(NC(=O)C(C(=O)O)c2ccsc2)C(=O)N2[C@@H](C(=O)O)C(C)(C)S[C@@H]21` (stereo partly shown) [Temocillin] the Interpretation was “S”.
For `C[C@@H](O)[C@H]1C(=O)N2C(C(=O)O)=C(S[C@@H]3CN[C@H](C(=O)N(C)C)C3)[C@H](C)[C@H]12` [Meropenem], the Interpretation was “S”.
For `C=CC1=C(C(=O)O)N2C(=O)[C@@H](NC(=O)/C(=N\OCC(=O)O)c3csc(N)n3)[C@H]2SC1` [Cefixime], the Interpretation was “*I”.

What follows are molecules tested on E. coli NDM5a (assay: VITEK 2 AST antimicrobial susceptibility testing). Conditions: E. coli NDM5a.
Type: cell-based, Escherichia coli
Procedure: as §1, §2, §3, §4
In the case of Colistin, the Interoretation is reported as “S”.
`C[C@@H](O)[C@H]1C(=O)N2C(C(=O)O)=C(S[C@@H]3CN[C@H](C(=O)N(C)C)C3)[C@H](C)[C@H]12` [Meropenem] was tested, and the Interoretation was “R”.
For `C=CC1=C(C(=O)O)N2C(=O)[C@@H](NC(=O)/C(=N\OCC(=O)O)c3csc(N)n3)[C@H]2SC1` [Cefixime], the Interoretation was “R”.

Same assay, conditions: VITEK 2 AST card
For Colistin, the Interpretation was “S”.
With `CO[C@@]1(NC(=O)C(C(=O)O)c2ccsc2)C(=O)N2[C@@H](C(=O)O)C(C)(C)S[C@@H]21` (stereo partly shown) [Temocillin] the Interpretation was “R”.
With `C[C@@H](O)[C@H]1C(=O)N2C(C(=O)O)=C(S[C@@H]3CN[C@H](C(=O)N(C)C)C3)[C@H](C)[C@H]12` [Meropenem] the Interpretation was “R”.
With `C=CC1=C(C(=O)O)N2C(=O)[C@@H](NC(=O)/C(=N\OCC(=O)O)c3csc(N)n3)[C@H]2SC1` [Cefixime] the Interpretation was “R”.

Each molecule was assayed on E. coli NDM5b (assay: VITEK 2 AST antimicrobial susceptibility testing). Conditions: E. coli NDM5b.
Type: cell-based, Escherichia coli
Procedure: as §1, §2, §3, §4
In the case of Colistin, the Interoretation is reported as “S”.
With `C[C@@H](O)[C@H]1C(=O)N2C(C(=O)O)=C(S[C@@H]3CN[C@H](C(=O)N(C)C)C3)[C@H](C)[C@H]12` [Meropenem] the Interoretation was “I”.
For `C=CC1=C(C(=O)O)N2C(=O)[C@@H](NC(=O)/C(=N\OCC(=O)O)c3csc(N)n3)[C@H]2SC1` [Cefixime], the Interoretation was “R”.

Same assay, conditions: VITEK 2 AST card
For Colistin, the Interpretation was “S”.
For `CO[C@@]1(NC(=O)C(C(=O)O)c2ccsc2)C(=O)N2[C@@H](C(=O)O)C(C)(C)S[C@@H]21` (stereo partly shown) [Temocillin], the Interpretation was “R”.
For `C[C@@H](O)[C@H]1C(=O)N2C(C(=O)O)=C(S[C@@H]3CN[C@H](C(=O)N(C)C)C3)[C@H](C)[C@H]12` [Meropenem], the Interpretation was “I”.
In the case of `C=CC1=C(C(=O)O)N2C(=O)[C@@H](NC(=O)/C(=N\OCC(=O)O)c3csc(N)n3)[C@H]2SC1` [Cefixime], the Interpretation is reported as “R”.

What follows are molecules tested on E. coli SHV1 (APHA) (assay: VITEK 2 AST antimicrobial susceptibility testing). Conditions: E. coli SHV154.
Type: cell-based, Escherichia coli
Procedure: as §1, §2, §3, §4
With Colistin the Interoretation was “S”.
For `CO[C@@]1(NC(=O)C(C(=O)O)c2ccsc2)C(=O)N2[C@@H](C(=O)O)C(C)(C)S[C@@H]21` (stereo partly shown) [Temocillin], the Interoretation was “R”.
With `C[C@@H](O)[C@H]1C(=O)N2C(C(=O)O)=C(S[C@@H]3CN[C@H](C(=O)N(C)C)C3)[C@H](C)[C@H]12` [Meropenem] the Interoretation was “S”.
In the case of `C=CC1=C(C(=O)O)N2C(=O)[C@@H](NC(=O)/C(=N\OCC(=O)O)c3csc(N)n3)[C@H]2SC1` [Cefixime], the Interoretation is reported as “R”.

Same assay, conditions: VITEK 2 AST card
With Colistin the Interpretation was “S”.
`CO[C@@]1(NC(=O)C(C(=O)O)c2ccsc2)C(=O)N2[C@@H](C(=O)O)C(C)(C)S[C@@H]21` (stereo partly shown) [Temocillin] was tested, and the Interpretation was “R”.
With `C[C@@H](O)[C@H]1C(=O)N2C(C(=O)O)=C(S[C@@H]3CN[C@H](C(=O)N(C)C)C3)[C@H](C)[C@H]12` [Meropenem] the Interpretation was “S”.
In the case of `C=CC1=C(C(=O)O)N2C(=O)[C@@H](NC(=O)/C(=N\OCC(=O)O)c3csc(N)n3)[C@H]2SC1` [Cefixime], the Interpretation is reported as “R”.

The molecules below were run on E. coli TEM-104 (assay: VITEK 2 AST antimicrobial susceptibility testing). Conditions: E. coli TEM-104.
Type: cell-based, Escherichia coli
Procedure: as §1, §2, §3, §4
Colistin was tested, and the Interoretation was “S”.
For `CO[C@@]1(NC(=O)C(C(=O)O)c2ccsc2)C(=O)N2[C@@H](C(=O)O)C(C)(C)S[C@@H]21` (stereo partly shown) [Temocillin], the Interoretation was “S”.
`C[C@@H](O)[C@H]1C(=O)N2C(C(=O)O)=C(S[C@@H]3CN[C@H](C(=O)N(C)C)C3)[C@H](C)[C@H]12` [Meropenem] was tested, and the Interoretation was “S”.
`C=CC1=C(C(=O)O)N2C(=O)[C@@H](NC(=O)/C(=N\OCC(=O)O)c3csc(N)n3)[C@H]2SC1` [Cefixime] was tested, and the Interoretation was “S”.

Same assay, conditions: VITEK 2 AST card
Colistin was tested, and the Interpretation was “S”.
`CO[C@@]1(NC(=O)C(C(=O)O)c2ccsc2)C(=O)N2[C@@H](C(=O)O)C(C)(C)S[C@@H]21` (stereo partly shown) [Temocillin] was tested, and the Interpretation was “S”.
In the case of `C[C@@H](O)[C@H]1C(=O)N2C(C(=O)O)=C(S[C@@H]3CN[C@H](C(=O)N(C)C)C3)[C@H](C)[C@H]12` [Meropenem], the Interpretation is reported as “S”.
With `C=CC1=C(C(=O)O)N2C(=O)[C@@H](NC(=O)/C(=N\OCC(=O)O)c3csc(N)n3)[C@H]2SC1` [Cefixime] the Interpretation was “S”.

What follows are molecules tested on E. coli TEM-148 (assay: VITEK 2 AST antimicrobial susceptibility testing). Conditions: E. coli TEM-148.
Type: cell-based, Escherichia coli
Procedure: as §1, §2, §3, §4
Colistin was tested, and the Interoretation was “S”.
For `CO[C@@]1(NC(=O)C(C(=O)O)c2ccsc2)C(=O)N2[C@@H](C(=O)O)C(C)(C)S[C@@H]21` (stereo partly shown) [Temocillin], the Interoretation was “S”.
For `C[C@@H](O)[C@H]1C(=O)N2C(C(=O)O)=C(S[C@@H]3CN[C@H](C(=O)N(C)C)C3)[C@H](C)[C@H]12` [Meropenem], the Interoretation was “S”.
With `C=CC1=C(C(=O)O)N2C(=O)[C@@H](NC(=O)/C(=N\OCC(=O)O)c3csc(N)n3)[C@H]2SC1` [Cefixime] the Interoretation was “*I”.

Same assay, conditions: VITEK 2 AST card
Colistin was tested, and the Interpretation was “S”.
With `CO[C@@]1(NC(=O)C(C(=O)O)c2ccsc2)C(=O)N2[C@@H](C(=O)O)C(C)(C)S[C@@H]21` (stereo partly shown) [Temocillin] the Interpretation was “S”.
With `C[C@@H](O)[C@H]1C(=O)N2C(C(=O)O)=C(S[C@@H]3CN[C@H](C(=O)N(C)C)C3)[C@H](C)[C@H]12` [Meropenem] the Interpretation was “S”.
`C=CC1=C(C(=O)O)N2C(=O)[C@@H](NC(=O)/C(=N\OCC(=O)O)c3csc(N)n3)[C@H]2SC1` [Cefixime] was tested, and the Interpretation was “*I”.

The molecules below were run on E. coli TEM-16 (assay: VITEK 2 AST antimicrobial susceptibility testing). Conditions: E. coli TEM-16.
Type: cell-based, Escherichia coli
Procedure: as §1, §2, §3, §4
In the case of Colistin, the Interoretation is reported as “S”.
For `C[C@@H](O)[C@H]1C(=O)N2C(C(=O)O)=C(S[C@@H]3CN[C@H](C(=O)N(C)C)C3)[C@H](C)[C@H]12` [Meropenem], the Interoretation was “S”.
`C=CC1=C(C(=O)O)N2C(=O)[C@@H](NC(=O)/C(=N\OCC(=O)O)c3csc(N)n3)[C@H]2SC1` [Cefixime] was tested, and the Interoretation was “R”.

Same assay, conditions: VITEK 2 AST card
With Colistin the Interpretation was “S”.
In the case of `CO[C@@]1(NC(=O)C(C(=O)O)c2ccsc2)C(=O)N2[C@@H](C(=O)O)C(C)(C)S[C@@H]21` (stereo partly shown) [Temocillin], the Interpretation is reported as “R”.
`C[C@@H](O)[C@H]1C(=O)N2C(C(=O)O)=C(S[C@@H]3CN[C@H](C(=O)N(C)C)C3)[C@H](C)[C@H]12` [Meropenem] was tested, and the Interpretation was “S”.
With `C=CC1=C(C(=O)O)N2C(=O)[C@@H](NC(=O)/C(=N\OCC(=O)O)c3csc(N)n3)[C@H]2SC1` [Cefixime] the Interpretation was “R”.

What follows are molecules tested on E. coli TEM-206 (assay: VITEK 2 AST antimicrobial susceptibility testing). Conditions: E. coli TEM-206.
Type: cell-based, Escherichia coli
Procedure: as §1, §2, §3, §4
With Colistin the Interoretation was “S”.
`CO[C@@]1(NC(=O)C(C(=O)O)c2ccsc2)C(=O)N2[C@@H](C(=O)O)C(C)(C)S[C@@H]21` (stereo partly shown) [Temocillin] was tested, and the Interoretation was “S”.
With `C[C@@H](O)[C@H]1C(=O)N2C(C(=O)O)=C(S[C@@H]3CN[C@H](C(=O)N(C)C)C3)[C@H](C)[C@H]12` [Meropenem] the Interoretation was “S”.
`C=CC1=C(C(=O)O)N2C(=O)[C@@H](NC(=O)/C(=N\OCC(=O)O)c3csc(N)n3)[C@H]2SC1` [Cefixime] was tested, and the Interoretation was “R”.

Same assay, conditions: VITEK 2 AST card
With Colistin the Interpretation was “S”.
For `CO[C@@]1(NC(=O)C(C(=O)O)c2ccsc2)C(=O)N2[C@@H](C(=O)O)C(C)(C)S[C@@H]21` (stereo partly shown) [Temocillin], the Interpretation was “S”.
In the case of `C[C@@H](O)[C@H]1C(=O)N2C(C(=O)O)=C(S[C@@H]3CN[C@H](C(=O)N(C)C)C3)[C@H](C)[C@H]12` [Meropenem], the Interpretation is reported as “S”.
In the case of `C=CC1=C(C(=O)O)N2C(=O)[C@@H](NC(=O)/C(=N\OCC(=O)O)c3csc(N)n3)[C@H]2SC1` [Cefixime], the Interpretation is reported as “R”.

— article PMC10492782, “Exploiting the aggregation propensity of beta-lactamases to design inhibitors that induce enzyme misfolding” (Nature Communications, 2023)
